Laboratory results from patent publication US5416191A, “Bradykinin antagonists” (Cortech, Inc., priority 1993, dated 1995).
Where two headings read alike, the source gives them in different places. Peptide text beside a SMILES is read from it.

Biological target: T1, bradykinin receptor of the B2 class (rat uterus) (Rattus norvegicus, UniProt P25023)
T1 construct: concentration effect curves to bradykinin (BK) on rat uterus in vitro; from tissue; host or cells: rat uterus
T1 sequence (P25023 1-396): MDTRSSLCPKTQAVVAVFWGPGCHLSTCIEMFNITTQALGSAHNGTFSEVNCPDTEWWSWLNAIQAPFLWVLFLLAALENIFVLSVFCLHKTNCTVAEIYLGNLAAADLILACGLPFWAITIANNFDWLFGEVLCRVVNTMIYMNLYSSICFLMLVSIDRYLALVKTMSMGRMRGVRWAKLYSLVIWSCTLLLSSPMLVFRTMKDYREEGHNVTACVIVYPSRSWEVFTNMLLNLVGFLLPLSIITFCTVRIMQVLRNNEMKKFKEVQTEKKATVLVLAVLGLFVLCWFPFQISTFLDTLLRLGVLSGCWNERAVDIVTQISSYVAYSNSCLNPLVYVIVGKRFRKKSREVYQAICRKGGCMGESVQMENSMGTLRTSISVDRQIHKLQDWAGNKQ
Test: Rat uterus (RU) in vitro, antagonism of bradykinin
Procedure: Thus in vitro studies were performed on standard assay systems, namely, guinea-pig ileum (GPI), rat uterus (RU) and rabbit jugular vein (RJV). […] The PA2 can be defined as the negative logarithm of the molar concentration of the antagonist in the presence of which the potency of the agonist is reduced two-fold, i.e. twice the amount of agonist is required to produce a given response in the presence of, than in the absence of, the antagonist. A high potency of antagonism is indicated by a high PA2 value, i.e., a low concentration of antagonist is effective.
The percentage recovery (% Rec) was also determined for compounds with respect to each assay.
With respect to duration of activity, it is noted that after exposure to the highest concentration of antagonist, each tissue was washed extensively and then assessed for recovery from the antagonist effect.
Potency in the rat uterus assay was assessed as described above and PA2 values determined.

[1] = Table D, effect of linker length, read-out: pA2 (UTERUS) (converted)

CC(C)C[C@H](NC(=O)[C@@H](Cc1ccccc1)NC(=O)[C@H](CSC1CC(=O)N(CCN2C(=O)CC(SC[C@H](NC(=O)[C@H](Cc3ccccc3)NC(=O)CNC(=O)[C@@H]3C[C@@H](O)CN3C(=O)[C@@H]3CCCN3C(=O)[C@H](CCCNC(=N)N)NC(=O)[C@H](N)CCCNC(=N)N)C(=O)N[C@H](Cc3ccccc3)C(=O)N[C@@H](CC(C)C)C(=O)N[C@@H](CCCNC(=N)N)C(=O)O)C2=O)C1=O)NC(=O)[C@H](Cc1ccccc1)NC(=O)CNC(=O)[C@@H]1C[C@@H](O)CN1C(=O)[C@@H]1CCCN1C(=O)[C@H](CCCNC(=N)N)NC(=O)[C@H](N)CCCNC(=N)N)C(=O)N[C@@H](CCCNC(=N)N)C(=O)O (some centres unmarked) [CP-0162] (HELM PEPTIDE1{[dR].R.P.[Hyp].G.F.C.[dF].L.R}|PEPTIDE2{[dR].R.P.[Hyp].G.F.C.[dF].L.R}|CHEM1{[O=C1CC([*:1])C(=O)N1CCN1C(=O)CC([*:2])C1=O]}$PEPTIDE1,CHEM1,7:R3-1:R1|PEPTIDE2,CHEM1,7:R3-1:R2$$$V2.0)
% REC (40 MIN) (Table D): 90% | Kb [1]: 5.01 nM

CC(C)C[C@H](NC(=O)[C@@H](Cc1ccccc1)NC(=O)[C@H](CSC1CC(=O)N(CCCCCCCCCCCCN2C(=O)CC(SC[C@H](NC(=O)[C@H](Cc3ccccc3)NC(=O)CNC(=O)[C@@H]3C[C@@H](O)CN3C(=O)[C@@H]3CCCN3C(=O)[C@H](CCCNC(=N)N)NC(=O)[C@H](N)CCCNC(=N)N)C(=O)N[C@H](Cc3ccccc3)C(=O)N[C@@H](CC(C)C)C(=O)N[C@@H](CCCNC(=N)N)C(=O)O)C2=O)C1=O)NC(=O)[C@H](Cc1ccccc1)NC(=O)CNC(=O)[C@@H]1C[C@@H](O)CN1C(=O)[C@@H]1CCCN1C(=O)[C@H](CCCNC(=N)N)NC(=O)[C@H](N)CCCNC(=N)N)C(=O)N[C@@H](CCCNC(=N)N)C(=O)O (some centres unmarked) [CP-0166] (HELM PEPTIDE1{[dR].R.P.[Hyp].G.F.C.[dF].L.R}|PEPTIDE2{[dR].R.P.[Hyp].G.F.C.[dF].L.R}|CHEM1{[O=C1CC([*:1])C(=O)N1CCCCCCCCCCCCN1C(=O)CC([*:2])C1=O]}$PEPTIDE1,CHEM1,7:R3-1:R1|PEPTIDE2,CHEM1,7:R3-1:R2$$$V2.0)
% REC (40 MIN) (Table D): 0% | Kb [1]: 6.31 nM

CC(C)C[C@H](NC(=O)[C@@H](Cc1ccccc1)NC(=O)[C@H](CSC1CC(=O)N(CCCN2C(=O)CC(SC[C@H](NC(=O)[C@H](Cc3ccccc3)NC(=O)CNC(=O)[C@@H]3C[C@@H](O)CN3C(=O)[C@@H]3CCCN3C(=O)[C@H](CCCNC(=N)N)NC(=O)[C@H](N)CCCNC(=N)N)C(=O)N[C@H](Cc3ccccc3)C(=O)N[C@@H](CC(C)C)C(=O)N[C@@H](CCCNC(=N)N)C(=O)O)C2=O)C1=O)NC(=O)[C@H](Cc1ccccc1)NC(=O)CNC(=O)[C@@H]1C[C@@H](O)CN1C(=O)[C@@H]1CCCN1C(=O)[C@H](CCCNC(=N)N)NC(=O)[C@H](N)CCCNC(=N)N)C(=O)N[C@@H](CCCNC(=N)N)C(=O)O (some centres unmarked) [CP-0172] (HELM PEPTIDE1{[dR].R.P.[Hyp].G.F.C.[dF].L.R}|PEPTIDE2{[dR].R.P.[Hyp].G.F.C.[dF].L.R}|CHEM1{[O=C1CC([*:1])C(=O)N1CCCN1C(=O)CC([*:2])C1=O]}$PEPTIDE1,CHEM1,7:R3-1:R1|PEPTIDE2,CHEM1,7:R3-1:R2$$$V2.0)
% REC (40 MIN) (Table D): 90% | Kb [1]: 2.51 nM

N=C(N)NCCC[C@@H](N)C(=O)N[C@@H](CCCNC(=N)N)C(=O)N1CCC[C@H]1C(=O)N1C[C@H](O)C[C@H]1C(=O)NCC(=O)N[C@@H](Cc1ccccc1)C(=O)N[C@@H](CO)C(=O)N[C@H](Cc1ccccc1)C(=O)N[C@@H](Cc1ccccc1)C(=O)N[C@@H](CCCNC(=N)N)C(=O)O [CP-0181, DArg^0 -Arg^1 -Pro^2 -Hyp^3 -Gly^4 -Phe^5 -Ser^6 -DPhe^7 -Phe^8 -Arg^9, reference compound]
% RECOVERY (Table F, rat uterus): 100% | Kb (Table F, read-out: RAT UTERUS pA2 (converted)): 100 nM

CC(C)C[C@H](NC(=O)[C@@H](Cc1ccccc1)NC(=O)[C@H](CSC1CC(=O)N(CCCCN2C(=O)CC(SC[C@H](NC(=O)[C@H](Cc3ccccc3)NC(=O)CNC(=O)[C@@H]3C[C@@H](O)CN3C(=O)[C@@H]3CCCN3C(=O)[C@H](CCCNC(=N)N)NC(=O)[C@H](N)CCCNC(=N)N)C(=O)N[C@H](Cc3ccccc3)C(=O)N[C@@H](CC(C)C)C(=O)N[C@@H](CCCNC(=N)N)C(=O)O)C2=O)C1=O)NC(=O)[C@H](Cc1ccccc1)NC(=O)CNC(=O)[C@@H]1C[C@@H](O)CN1C(=O)[C@@H]1CCCN1C(=O)[C@H](CCCNC(=N)N)NC(=O)[C@H](N)CCCNC(=N)N)C(=O)N[C@@H](CCCNC(=N)N)C(=O)O (some centres unmarked) [CP-0209] (HELM PEPTIDE1{[dR].R.P.[Hyp].G.F.C.[dF].L.R}|PEPTIDE2{[dR].R.P.[Hyp].G.F.C.[dF].L.R}|CHEM1{[O=C1CC([*:1])C(=O)N1CCCCN1C(=O)CC([*:2])C1=O]}$PEPTIDE1,CHEM1,7:R3-1:R1|PEPTIDE2,CHEM1,7:R3-1:R2$$$V2.0)
% REC (40 MIN) (Table D): 50% | Kb [1]: 6.31 nM

CC(C)C[C@H](NC(=O)[C@@H](Cc1ccccc1)NC(=O)[C@H](CSC1CC(=O)N(CCCCCCCCN2C(=O)CC(SC[C@H](NC(=O)[C@H](Cc3ccccc3)NC(=O)CNC(=O)[C@@H]3C[C@@H](O)CN3C(=O)[C@@H]3CCCN3C(=O)[C@H](CCCNC(=N)N)NC(=O)[C@H](N)CCCNC(=N)N)C(=O)N[C@H](Cc3ccccc3)C(=O)N[C@@H](CC(C)C)C(=O)N[C@@H](CCCNC(=N)N)C(=O)O)C2=O)C1=O)NC(=O)[C@H](Cc1ccccc1)NC(=O)CNC(=O)[C@@H]1C[C@@H](O)CN1C(=O)[C@@H]1CCCN1C(=O)[C@H](CCCNC(=N)N)NC(=O)[C@H](N)CCCNC(=N)N)C(=O)N[C@@H](CCCNC(=N)N)C(=O)O (some centres unmarked) [CP-0211] (HELM PEPTIDE1{[dR].R.P.[Hyp].G.F.C.[dF].L.R}|PEPTIDE2{[dR].R.P.[Hyp].G.F.C.[dF].L.R}|CHEM1{[O=C1CC([*:1])C(=O)N1CCCCCCCCN1C(=O)CC([*:2])C1=O]}$PEPTIDE1,CHEM1,7:R3-1:R1|PEPTIDE2,CHEM1,7:R3-1:R2$$$V2.0)
% REC (40 MIN) (Table D): 25% | Kb [1]: 3.98 nM

CC(C)C[C@H](NC(=O)[C@@H](Cc1ccccc1)NC(=O)[C@H](CSC1CC(=O)N(CCCCCCCCCN2C(=O)CC(SC[C@H](NC(=O)[C@H](Cc3ccccc3)NC(=O)CNC(=O)[C@@H]3C[C@@H](O)CN3C(=O)[C@@H]3CCCN3C(=O)[C@H](CCCNC(=N)N)NC(=O)[C@H](N)CCCNC(=N)N)C(=O)N[C@H](Cc3ccccc3)C(=O)N[C@@H](CC(C)C)C(=O)N[C@@H](CCCNC(=N)N)C(=O)O)C2=O)C1=O)NC(=O)[C@H](Cc1ccccc1)NC(=O)CNC(=O)[C@@H]1C[C@@H](O)CN1C(=O)[C@@H]1CCCN1C(=O)[C@H](CCCNC(=N)N)NC(=O)[C@H](N)CCCNC(=N)N)C(=O)N[C@@H](CCCNC(=N)N)C(=O)O (some centres unmarked) [CP-0229] (HELM PEPTIDE1{[dR].R.P.[Hyp].G.F.C.[dF].L.R}|PEPTIDE2{[dR].R.P.[Hyp].G.F.C.[dF].L.R}|CHEM1{[O=C1CC([*:1])C(=O)N1CCCCCCCCCN1C(=O)CC([*:2])C1=O]}$PEPTIDE1,CHEM1,7:R3-1:R1|PEPTIDE2,CHEM1,7:R3-1:R2$$$V2.0)
% REC (40 MIN) (Table D): 0-10% | Kb [1]: 1 nM
